Test results published in the NIST ThermoML archive (doi:10.1021/acs.jced.7b00347).

Assay: mn = molality of the nth substance listed, in mol/kg
Conditions: for surface tension liquid-gas: Ring tensiometer; for electrical conductivity: 100 kPa, Liquid, Alternating current cell with electrodes

CCCCCCCCCCCC[NH+](CCO)CC(C)O.[Cl-] (stereo unspecified) + O
Conditions	electrical conductivity [S/m]	surface tension liquid-gas [mN/m]
293.15 K, m1 = 1.54e-05	0.00031	–
293.15 K, m1 = 1.543e-05	–	59.21
293.15 K, m1 = 3.087e-05	–	52.72
293.15 K, m1 = 3.859e-05	–	50.31
293.15 K, m1 = 3.95e-05	0.00039	–
293.15 K, m1 = 6.35e-05	0.00047	–
293.15 K, m1 = 7.717e-05	–	44.02
293.15 K, m1 = 8.75e-05	0.000551	–
293.15 K, m1 = 0.0001116	0.000631	–
293.15 K, m1 = 0.0001356	0.000711	–
293.15 K, m1 = 0.0001544	–	37.72
293.15 K, m1 = 0.0001596	0.000791	–
293.15 K, m1 = 0.0001837	0.000872	–
293.15 K, m1 = 0.0002077	0.000952	–
293.15 K, m1 = 0.0002315	–	34.11
293.15 K, m1 = 0.0002317	0.00103	–
293.15 K, m1 = 0.0002558	0.00111	–
293.15 K, m1 = 0.0002798	0.00119	–
293.15 K, m1 = 0.0003038	0.00127	–
293.15 K, m1 = 0.0003087	–	31.52
293.15 K, m1 = 0.0003279	0.00135	–
293.15 K, m1 = 0.0003519	0.00144	30.47
293.15 K, m1 = 0.0003819	0.00148	–
293.15 K, m1 = 0.0004119	0.00153	–
293.15 K, m1 = 0.0004419	0.00159	–
293.15 K, m1 = 0.0004719	0.00163	–
293.15 K, m1 = 0.0005018	0.00169	–
293.15 K, m1 = 0.0005318	0.00174	–
293.15 K, m1 = 0.0005618	0.00179	–
293.15 K, m1 = 0.0005918	0.00184	–
293.15 K, m1 = 0.0006218	0.00189	–
293.15 K, m1 = 0.0006518	0.00194	–
293.15 K, m1 = 0.0006818	0.00199	–
293.15 K, m1 = 0.0007118	0.00204	–
293.15 K, m1 = 0.0007417	0.00209	–
293.15 K, m1 = 0.0007717	0.00214	30.03
293.15 K, m1 = 0.001543	–	29.53
293.15 K, m1 = 0.002315	–	29.53
298.15 K, m1 = 1.54e-05	0.00041	–
298.15 K, m1 = 1.543e-05	–	54.03
298.15 K, m1 = 3.087e-05	–	48.02
298.15 K, m1 = 3.51e-05	0.000488	–
298.15 K, m1 = 3.859e-05	–	45.91
298.15 K, m1 = 5.47e-05	0.000565	–
298.15 K, m1 = 7.43e-05	0.000643	–
298.15 K, m1 = 7.717e-05	–	40
298.15 K, m1 = 9.39e-05	0.000721	–
298.15 K, m1 = 0.0001136	0.000798	–
298.15 K, m1 = 0.0001332	0.000876	–
298.15 K, m1 = 0.0001528	0.000954	–
298.15 K, m1 = 0.0001544	–	34.51
298.15 K, m1 = 0.0001724	0.00103	–
298.15 K, m1 = 0.000192	0.00111	–
298.15 K, m1 = 0.0002117	0.00119	–
298.15 K, m1 = 0.0002313	0.00127	–
298.15 K, m1 = 0.0002315	–	31.42
298.15 K, m1 = 0.0002509	0.00134	–
298.15 K, m1 = 0.0002705	0.00142	–
298.15 K, m1 = 0.0002902	0.0015	–
298.15 K, m1 = 0.0002932	–	29.91
298.15 K, m1 = 0.0003155	0.00156	–
298.15 K, m1 = 0.0003409	0.00161	–
298.15 K, m1 = 0.0003662	0.00167	–
298.15 K, m1 = 0.0003915	0.00173	–
298.15 K, m1 = 0.0004169	0.00179	–
298.15 K, m1 = 0.0004422	0.00185	–
298.15 K, m1 = 0.0004676	0.0019	–
298.15 K, m1 = 0.0004929	0.00196	–
298.15 K, m1 = 0.0005183	0.00202	–
298.15 K, m1 = 0.0005436	0.00208	–
298.15 K, m1 = 0.000569	0.00213	–
298.15 K, m1 = 0.0005943	0.00219	–
298.15 K, m1 = 0.0006197	0.00225	–
298.15 K, m1 = 0.000645	0.00231	–
298.15 K, m1 = 0.0006703	0.00236	–
298.15 K, m1 = 0.0006957	0.00242	–
298.15 K, m1 = 0.000721	0.00248	–
298.15 K, m1 = 0.0007464	0.00254	–
298.15 K, m1 = 0.0007717	0.0026	29.14
298.15 K, m1 = 0.001543	–	28.62
298.15 K, m1 = 0.002315	–	28.22
298.15 K, m1 = 0.003087	–	28.01
303.15 K, m1 = 1.08e-05	–	52.51
303.15 K, m1 = 1.54e-05	0.00051	–
303.15 K, m1 = 1.543e-05	–	49.91
303.15 K, m1 = 3.087e-05	–	44.82
303.15 K, m1 = 3.44e-05	0.000593	–
303.15 K, m1 = 3.859e-05	–	42.83
303.15 K, m1 = 5.34e-05	0.000676	–
303.15 K, m1 = 7.23e-05	0.000759	–
303.15 K, m1 = 7.717e-05	–	38
303.15 K, m1 = 9.13e-05	0.000841	–
303.15 K, m1 = 0.0001102	0.000924	–
303.15 K, m1 = 0.0001292	0.00101	–
303.15 K, m1 = 0.0001482	0.00109	–
303.15 K, m1 = 0.0001544	–	32.62
303.15 K, m1 = 0.0001671	0.00117	–
303.15 K, m1 = 0.0001861	0.00126	–
303.15 K, m1 = 0.0002051	0.00134	–
303.15 K, m1 = 0.000224	0.00142	–
303.15 K, m1 = 0.0002315	–	29.91
303.15 K, m1 = 0.000243	0.0015	–
303.15 K, m1 = 0.0002619	0.00159	–
303.15 K, m1 = 0.0002797	–	28.96
303.15 K, m1 = 0.0002809	0.00167	–
303.15 K, m1 = 0.0003067	0.00174	–
303.15 K, m1 = 0.0003326	0.00181	–
303.15 K, m1 = 0.0003584	0.00188	–
303.15 K, m1 = 0.0003842	0.00195	–
303.15 K, m1 = 0.0004101	0.00202	–
303.15 K, m1 = 0.0004359	0.00209	–
303.15 K, m1 = 0.0004617	0.00216	–
303.15 K, m1 = 0.0004876	0.00223	–
303.15 K, m1 = 0.0005134	0.0023	–
303.15 K, m1 = 0.0005392	0.00237	–
303.15 K, m1 = 0.0005651	0.00244	–
303.15 K, m1 = 0.0005909	0.00251	–
303.15 K, m1 = 0.0006167	0.00258	–
303.15 K, m1 = 0.0006426	0.00265	–
303.15 K, m1 = 0.0006684	0.00272	–
303.15 K, m1 = 0.0006942	0.00279	–
303.15 K, m1 = 0.0007201	0.00285	–
303.15 K, m1 = 0.0007459	0.00293	–
303.15 K, m1 = 0.0007717	0.003	28.21
303.15 K, m1 = 0.001543	–	27.64
303.15 K, m1 = 0.002315	–	27.64
303.15 K, m1 = 0.003087	–	27.64
308.15 K, m1 = 8.952e-06	–	50.44
308.15 K, m1 = 1.54e-05	0.00061	–
308.15 K, m1 = 1.543e-05	–	46.51
308.15 K, m1 = 3.087e-05	–	41.89
308.15 K, m1 = 3.51e-05	0.000702	–
308.15 K, m1 = 3.859e-05	–	40.38
308.15 K, m1 = 5.47e-05	0.000794	–
308.15 K, m1 = 7.43e-05	0.000886	–
308.15 K, m1 = 7.717e-05	–	35.57
308.15 K, m1 = 9.39e-05	0.000978	–
308.15 K, m1 = 0.0001136	0.00107	–
308.15 K, m1 = 0.0001332	0.00116	–
308.15 K, m1 = 0.0001528	0.00125	–
308.15 K, m1 = 0.0001544	–	31.04
308.15 K, m1 = 0.0001724	0.00135	–
308.15 K, m1 = 0.000192	0.00144	–
308.15 K, m1 = 0.0002117	0.00153	–
308.15 K, m1 = 0.0002313	0.00162	–
308.15 K, m1 = 0.0002509	0.00171	–
308.15 K, m1 = 0.0002624	–	27.74
308.15 K, m1 = 0.0002705	0.00181	–
308.15 K, m1 = 0.0002902	0.0019	–
308.15 K, m1 = 0.0003087	–	27.74
308.15 K, m1 = 0.0003169	0.00198	–
308.15 K, m1 = 0.0003437	0.00207	–
308.15 K, m1 = 0.0003704	0.00215	–
308.15 K, m1 = 0.0003972	0.00224	–
308.15 K, m1 = 0.0004239	0.00232	–
308.15 K, m1 = 0.0004507	0.00241	–
308.15 K, m1 = 0.0004774	0.00249	–
308.15 K, m1 = 0.0005042	0.00258	–
308.15 K, m1 = 0.0005309	0.00266	–
308.15 K, m1 = 0.0005577	0.00275	–
308.15 K, m1 = 0.0005845	0.00283	–
308.15 K, m1 = 0.0006112	0.00291	–
308.15 K, m1 = 0.000638	0.003	–
308.15 K, m1 = 0.0006647	0.00308	–
308.15 K, m1 = 0.0006915	0.00317	–
308.15 K, m1 = 0.0007182	0.00325	–
308.15 K, m1 = 0.000745	0.00334	–
308.15 K, m1 = 0.0007717	0.00342	27.55
308.15 K, m1 = 0.001543	–	27.08
308.15 K, m1 = 0.002315	–	26.79
308.15 K, m1 = 0.003087	–	26.79
